Measurements taken from PMC6857856, “Characterization of two thermophilic cellulases from Talaromyces leycettanus JCM12802 and their synergistic action on cellulose hydrolysis” (PLoS ONE, 2019).

Target: T1, TlCel5A (Evansstolkia leycettana, UniProt A0A3G5ECP2)
T1 construct: mature protein, 18-residue signal peptide removed (precursor 409 residues); catalytic domain, linker, C-terminal CBM; pPIC9, secreted from Pichia pastoris GS115, purified
Assay: HPAEC analysis of hydrolysis products
Format: biochemical
Settings: 60 °C; 200 μg substrate in 1 mL, 0.05 U enzyme

T1 sequence (A0A3G5ECP2 19-409): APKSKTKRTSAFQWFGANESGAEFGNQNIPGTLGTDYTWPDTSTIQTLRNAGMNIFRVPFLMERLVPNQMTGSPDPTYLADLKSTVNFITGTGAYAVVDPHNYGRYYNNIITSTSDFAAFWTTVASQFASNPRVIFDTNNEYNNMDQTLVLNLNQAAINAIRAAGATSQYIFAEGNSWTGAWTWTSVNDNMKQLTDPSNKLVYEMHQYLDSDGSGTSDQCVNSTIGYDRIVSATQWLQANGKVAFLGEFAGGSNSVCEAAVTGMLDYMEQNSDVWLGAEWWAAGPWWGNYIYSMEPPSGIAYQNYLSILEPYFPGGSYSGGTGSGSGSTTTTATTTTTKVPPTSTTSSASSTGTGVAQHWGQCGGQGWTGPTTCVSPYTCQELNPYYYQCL

Row | Compound | HPAEC analysis of hydrolysis products
1 | OC[C@H]1O[C@@H](O[C@H]2[C@H](O)[C@@H](O)[C@H](O[C@H]3[C@H](O)[C@@H](O)[C@H](O[C@H]4[C@H](O)[C@@H](O)[C@H](O[C@H]5[C@H](O)[C@@H](O)[C@H](O[C@H]6[C@H](O)[C@@H](O)C(O)O[C@@H]6CO)O[C@@H]5CO)O[C@@H]4CO)O[C@@H]3CO)O[C@@H]2CO)[C@H](O)[C@@H](O)[C@@H]1O (some centres unmarked) [cellohexaose] | cellohexaose into cellobiose, cellotriose, cellotetraose and cellopentaose
2 | OC[C@H]1O[C@@H](O[C@H]2[C@H](O)[C@@H](O)[C@H](O[C@H]3[C@H](O)[C@@H](O)[C@H](O[C@H]4[C@H](O)[C@@H](O)[C@H](O[C@H]5[C@H](O)[C@@H](O)C(O)O[C@@H]5CO)O[C@@H]4CO)O[C@@H]3CO)O[C@@H]2CO)[C@H](O)[C@@H](O)[C@@H]1O (some centres unmarked) [cellopentaose] | cleaved cellopentaose into mainly cellobiose and cellotriose and low amounts of cellotetraose
